From PubChem BioAssay (NCI)
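Compound exposure: 48 hours, 5 concentrations, 96-well plates. TGI marks complete inhibition of growth.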

Experiments:
Assay in all cases: NCI tumour cell line growth inhibition, 48 h
T-47D breast = test system: T-47D breast
HCT-116 colon = test system: HCT-116 colon
HCC-2998 colon = test system: HCC-2998 colon
IGROV1 ovarian = test system: IGROV1 ovarian
HOP-62 NSCLC = test system: HOP-62 NSCLC
MDA-MB-435 = test system: MDA-MB-435
COLO 205 colon = test system: COLO 205 colon
MDA-MB-231 breast = test system: MDA-MB-231 breast
K-562 leukemia = test system: K-562 leukemia
BT-549 breast = test system: BT-549 breast
CCRF-CEM leukemia = test system: CCRF-CEM leukemia
MDA-N = test system: MDA-N
SN12C renal = test system: SN12C renal
NCI-H522 lung = test system: NCI-H522 lung
SNB-75 CNS = test system: SNB-75 CNS
MCF7 breast = test system: MCF7 breast
SF-268 CNS = test system: SF-268 CNS
HS 578T breast = test system: HS 578T breast
RPMI-8226 leukemia = test system: RPMI-8226 leukemia
UO-31 renal = test system: UO-31 renal
UACC-257 melanoma = test system: UACC-257 melanoma
U251 CNS = test system: U251 CNS
SF-539 CNS = test system: SF-539 CNS
NCI/ADR-RES ovarian = test system: NCI/ADR-RES ovarian
LOX IMVI melanoma = test system: LOX IMVI melanoma
HT29 colon = test system: HT29 colon
M14 melanoma = test system: M14 melanoma
PC-3 prostate = test system: PC-3 prostate
SK-OV-3 ovarian = test system: SK-OV-3 ovarian
A549 NSCLC = test system: A549 NSCLC
NCI-H460 lung = test system: NCI-H460 lung
OVCAR-4 ovarian = test system: OVCAR-4 ovarian
SW-620 colon = test system: SW-620 colon
MOLT-4 leukemia = test system: MOLT-4 leukemia
NCI-H226 lung = test system: NCI-H226 lung
HOP-92 NSCLC = test system: HOP-92 NSCLC
HCT-15 colon = test system: HCT-15 colon
SR leukemia = test system: SR leukemia
HL-60(TB) leukemia = test system: HL-60(TB) leukemia
DU-145 prostate = test system: DU-145 prostate
SNB-19 CNS = test system: SNB-19 CNS
786-0 renal = test system: 786-0 renal
NCI-H23 lung = test system: NCI-H23 lung
RXF 393 renal = test system: RXF 393 renal
UACC-62 melanoma = test system: UACC-62 melanoma
ACHN renal = test system: ACHN renal
A498 renal = test system: A498 renal
OVCAR-3 ovarian = test system: OVCAR-3 ovarian
KM12 colon = test system: KM12 colon
OVCAR-5 ovarian = test system: OVCAR-5 ovarian
TK-10 renal = test system: TK-10 renal
SF-295 CNS = test system: SF-295 CNS
OVCAR-8 ovarian = test system: OVCAR-8 ovarian
SK-MEL-5 melanoma = test system: SK-MEL-5 melanoma
EKVX NSCLC = test system: EKVX NSCLC
SK-MEL-28 melanoma = test system: SK-MEL-28 melanoma
CAKI-1 renal = test system: CAKI-1 renal

Measured: TGI

O=C1OC(c2ccccc2)=NC1c1ccccc1 (configuration not stated)
> 100 µM: T-47D breast | HCT-116 colon | HCC-2998 colon | IGROV1 ovarian | HOP-62 NSCLC | MDA-MB-435 | COLO 205 colon | MDA-MB-231 breast | K-562 leukemia | BT-549 breast | CCRF-CEM leukemia | MDA-N | SN12C renal | NCI-H522 lung | SNB-75 CNS | MCF7 breast | SF-268 CNS | HS 578T breast | RPMI-8226 leukemia | UO-31 renal | UACC-257 melanoma | U251 CNS | SF-539 CNS | NCI/ADR-RES ovarian | LOX IMVI melanoma | HT29 colon | M14 melanoma | PC-3 prostate | SK-OV-3 ovarian | A549 NSCLC | NCI-H460 lung | OVCAR-4 ovarian | SW-620 colon | MOLT-4 leukemia | NCI-H226 lung | HOP-92 NSCLC | HCT-15 colon | SR leukemia | HL-60(TB) leukemia | DU-145 prostate | SNB-19 CNS | 786-0 renal | NCI-H23 lung | RXF 393 renal | UACC-62 melanoma | ACHN renal | A498 renal | OVCAR-3 ovarian | KM12 colon | OVCAR-5 ovarian | TK-10 renal | SF-295 CNS | OVCAR-8 ovarian | SK-MEL-5 melanoma | EKVX NSCLC | SK-MEL-28 melanoma | CAKI-1 renal
